Measured values taken from PubChem BioAssay (NCI).
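Test compounds were applied to cells in 96-well plates for 48 hours at 5 doses. TGI: total growth inhibition.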

What was measured:
Assay in all cases: NCI anticancer screen, dose series, 48 h
[1] = tested on: 786-0 renal
[2] = tested on: A498 renal
[3] = tested on: A549 NSCLC
[4] = tested on: ACHN renal
[5] = tested on: CAKI-1 renal
[6] = tested on: CCRF-CEM leukemia
[7] = tested on: COLO 205 colon
[8] = tested on: DLD-1 colon
[9] = tested on: DMS 114 small cell lung
[10] = tested on: DMS 273 small cell lung
[11] = tested on: EKVX NSCLC
[12] = tested on: HCC-2998 colon
[13] = tested on: HCT-116 colon
[14] = tested on: HCT-15 colon
[15] = tested on: HL-60(TB) leukemia
[16] = tested on: HOP-18 NSCLC
[17] = tested on: HOP-62 NSCLC
[18] = tested on: HOP-92 NSCLC
[19] = tested on: HT29 colon
[20] = tested on: IGROV1 ovarian
[21] = tested on: K-562 leukemia
[22] = tested on: KM20L2 colon
[23] = tested on: LOX IMVI melanoma
[24] = tested on: LXFL 529 NSCLC
[25] = tested on: M14 melanoma
[26] = tested on: M19-MEL melanoma
[27] = tested on: MALME-3M melanoma
[28] = tested on: MOLT-4 leukemia
[29] = tested on: NCI-H226 lung
[30] = tested on: NCI-H23 lung
[31] = tested on: NCI-H460 lung
[32] = tested on: NCI-H522 lung
[33] = tested on: OVCAR-4 ovarian
[34] = tested on: OVCAR-5 ovarian
[35] = tested on: OVCAR-8 ovarian
[36] = tested on: RPMI-8226 leukemia
[37] = tested on: RXF 393 renal
[38] = tested on: SF-268 CNS
[39] = tested on: SF-295 CNS
[40] = tested on: SF-539 CNS
[41] = tested on: SK-MEL-2 melanoma
[42] = tested on: SK-MEL-28 melanoma
[43] = tested on: SK-MEL-5 melanoma
[44] = tested on: SK-OV-3 ovarian
[45] = tested on: SN12C renal
[46] = tested on: SNB-19 CNS
[47] = tested on: SNB-75 CNS
[48] = tested on: SNB-78 CNS
[49] = tested on: SR leukemia
[50] = tested on: SW-620 colon
[51] = tested on: TK-10 renal
[52] = tested on: U251 CNS
[53] = tested on: UACC-257 melanoma
[54] = tested on: UACC-62 melanoma
[55] = tested on: UO-31 renal
[56] = tested on: XF 498 CNS
[57] = tested on: KM12 colon
[58] = tested on: OVCAR-3 ovarian

Q: How did the TGI [1] turn out when `O=C1C(Cl)=C(Cl)C(=O)N1C1C2CC3CC(C2)CC1C3` (centres undefined) was run?
A: The TGI was greater than 100 µM.

Q: And the TGI [2]?
A: Its TGI is greater than 100 µM.

Q: And the TGI [3]?
A: Its TGI is greater than 100 µM.

Q: What about the TGI [4] of the same compound?
A: Its TGI is greater than 100 µM.

Q: What about the TGI [5] of the same compound?
A: The TGI was greater than 66.9 µM.

Q: And the TGI [6]?
A: The TGI was 64.7 µM.

Q: What about the TGI [7] of the same compound?
A: The TGI was greater than 100 µM.

Q: What about the TGI [8] of the same compound?
A: Its TGI is greater than 100 µM.

Q: And the TGI [9]?
A: The TGI was greater than 100 µM.

Q: And the TGI [10]?
A: The TGI was greater than 100 µM.

Q: What about the TGI [11] of the same compound?
A: Its TGI is greater than 100 µM.

Q: And the TGI [12]?
A: The TGI was greater than 100 µM.

Q: And the TGI [13]?
A: Its TGI is greater than 100 µM.

Q: And the TGI [14]?
A: The TGI was greater than 100 µM.

Q: And the TGI [15]?
A: Its TGI is 79.4 µM.

Q: What about the TGI [16] of the same compound?
A: Its TGI is greater than 100 µM.

Q: What about the TGI [17] of the same compound?
A: Its TGI is greater than 100 µM.

Q: And the TGI [18]?
A: The TGI was greater than 100 µM.

Q: What about the TGI [19] of the same compound?
A: Its TGI is greater than 100 µM.

Q: And the TGI [20]?
A: Its TGI is greater than 100 µM.

Q: And the TGI [21]?
A: The TGI was greater than 92.2 µM.

Q: What about the TGI [22] of the same compound?
A: Its TGI is greater than 100 µM.

Q: And the TGI [23]?
A: The TGI was greater than 100 µM.

Q: What about the TGI [24] of the same compound?
A: Its TGI is greater than 100 µM.

Q: What about the TGI [25] of the same compound?
A: The TGI was greater than 100 µM.

Q: And the TGI [26]?
A: The TGI was greater than 100 µM.

Q: And the TGI [27]?
A: The TGI was greater than 100 µM.

Q: What about the TGI [28] of the same compound?
A: Its TGI is greater than 83.3 µM.

Q: And the TGI [29]?
A: Its TGI is greater than 100 µM.

Q: And the TGI [30]?
A: The TGI was greater than 100 µM.

Q: And the TGI [31]?
A: The TGI was greater than 100 µM.

Q: And the TGI [32]?
A: Its TGI is greater than 64.5 µM.

Q: What about the TGI [33] of the same compound?
A: Its TGI is greater than 100 µM.

Q: What about the TGI [34] of the same compound?
A: The TGI was greater than 100 µM.

Q: And the TGI [35]?
A: The TGI was greater than 100 µM.

Q: And the TGI [36]?
A: Its TGI is greater than 80.5 µM.

Q: What about the TGI [37] of the same compound?
A: The TGI was greater than 100 µM.

Q: What about the TGI [38] of the same compound?
A: Its TGI is greater than 100 µM.

Q: What about the TGI [39] of the same compound?
A: The TGI was greater than 100 µM.

Q: What about the TGI [40] of the same compound?
A: Its TGI is greater than 100 µM.

Q: And the TGI [41]?
A: Its TGI is greater than 100 µM.

Q: And the TGI [42]?
A: The TGI was greater than 100 µM.

Q: What about the TGI [43] of the same compound?
A: Its TGI is greater than 100 µM.

Q: And the TGI [44]?
A: Its TGI is greater than 100 µM.

Q: What about the TGI [45] of the same compound?
A: The TGI was greater than 100 µM.

Q: What about the TGI [46] of the same compound?
A: Its TGI is greater than 100 µM.

Q: What about the TGI [47] of the same compound?
A: Its TGI is greater than 100 µM.

Q: What about the TGI [48] of the same compound?
A: Its TGI is greater than 100 µM.

Q: And the TGI [49]?
A: The TGI was greater than 100 µM.

Q: What about the TGI [50] of the same compound?
A: The TGI was greater than 100 µM.

Q: What about the TGI [51] of the same compound?
A: Its TGI is greater than 100 µM.

Q: And the TGI [52]?
A: Its TGI is greater than 100 µM.

Q: And the TGI [53]?
A: The TGI was greater than 100 µM.

Q: What about the TGI [54] of the same compound?
A: Its TGI is greater than 100 µM.

Q: And the TGI [55]?
A: The TGI was greater than 100 µM.

Q: What about the TGI [56] of the same compound?
A: The TGI was greater than 100 µM.

Q: What does the source list for `Clc1ccc(-n2nnc(C3=NCCN3)c2-c2ccccc2)cc1`?
A: TGI [1]: > 100 µM; TGI [2]: > 100 µM; TGI [3]: > 100 µM; TGI [4]: > 100 µM; TGI [5]: > 100 µM; TGI [6]: > 100 µM; TGI [7]: > 100 µM; TGI [8]: > 100 µM; TGI [9]: > 100 µM; TGI [10]: > 100 µM; TGI [11]: > 100 µM; TGI [12]: > 100 µM; TGI [13]: > 100 µM; TGI [14]: > 100 µM; TGI [15]: > 100 µM; TGI [16]: > 100 µM; TGI [17]: > 100 µM; TGI [18]: > 100 µM; TGI [19]: > 100 µM; TGI [20]: > 100 µM; TGI [21]: > 100 µM; TGI [57]: > 100 µM; TGI [22]: > 100 µM; TGI [23]: > 100 µM; TGI [24]: > 100 µM; TGI [25]: > 100 µM; TGI [26]: > 100 µM; TGI [27]: > 100 µM; TGI [28]: > 100 µM; TGI [29]: > 100 µM; TGI [30]: > 100 µM; TGI [31]: > 100 µM; TGI [32]: > 100 µM; TGI [58]: > 100 µM; TGI [33]: > 100 µM; TGI [34]: > 100 µM; TGI [35]: > 100 µM; TGI [36]: > 100 µM; TGI [37]: > 100 µM; TGI [38]: > 100 µM; TGI [39]: > 100 µM; TGI [40]: > 100 µM; TGI [41]: > 100 µM; TGI [42]: > 100 µM; TGI [43]: > 100 µM; TGI [44]: > 100 µM; TGI [45]: > 100 µM; TGI [46]: > 100 µM; TGI [47]: > 100 µM; TGI [48]: > 100 µM; TGI [49]: > 100 µM; TGI [50]: > 100 µM; TGI [51]: > 100 µM; TGI [52]: > 100 µM; TGI [53]: > 100 µM; TGI [54]: > 100 µM; TGI [55]: > 100 µM; TGI [56]: > 100 µM
